≈ marks a conversion by molar mass, not a printed value.
Key:
[1] = tested on: Human normal lung fibroblasts MRC-5; assay: MTT-based viability (cytotoxicity) assay; conditions: MRC-5, MTT, 48 h
Description: To evaluate the cytotoxic effect of the tested compounds, an MTT-based assay was performed. […] Moreover, based on available IC50 and MIC (for standard and clinical S. aureus MRSA strains) values, the selectivity index (SI) was calculated for several compounds as the IC50/MIC ratio (Table 5).[60]
MRC-5 pd30 human fibroblasts (ECACC) were cultured in MEME, Minimum Essential Medium Eagle (Merck), supplemented with 10% fetal bovine serum (Merck), 2 mM L-glutamine, antibiotics (100 U mL^−1 penicillin, 100 μg mL^−1 streptomycin, Merck) and 1% non-essential amino acids (Merck). Cells were grown in 75 cm^2 cell culture flasks (Sarstedt), in a humidified atmosphere of CO2/air (5/95%) at 37 °C. MTT-based viability assay was conducted as described previously.[26] Optical densities were measured at 570 nm using a BioTek microplate reader. All measurements were carried out in three replicates and the results expressed as a percent of viable cells versus control cells. […] The selectivity index (SI) was calculated as [drawing 30] , in accordance with previously described protocols.[60]

C. albicans ATCC 90028 = assay: Antifungal activity: MIC/MFC, disc-diffusion; type: cell-based, Candida albicans
Description: (§1) Direct antimicrobial activity was determined against the following standard strains: (1) Gram-positive cocci: methicillin-sensitive Staphylococcus aureus ATCC 6538P (MSSA), methicillin-resistant S. aureus subsp. aureus ATCC 43300 (MRSA), S. epidermidis ATCC 12228, Enterococcus faecium ATCC 6057, E. faecalis ATCC 29212, Bacillus subtilis ATCC 6633; (2) Gram-negative bacteria from Enterobacteriales order: Klebsiella pneumoniae ATCC 13883, Escherichia coli ATCC 25922, Enterobacter cloacae DSM 6234, Proteus mirabilis ATCC 12453, Serratia marcescens ATCC 13880; (3) Gram-negative non-fermentative rods: Acinetobacter baumannii ATCC 19606, Pseudomonas aeruginosa ATCC 27853, Stenotrophomonas maltophilia ATCC 12714, S. maltophilia ATCC 13637, Burkholderia cepacia ATCC 25416, Bordetella bronchiseptica ATCC 4617; (4) yeasts: Candida albicans ATCC 90028, C. krusei ATCC 6258, C. parapsilosis ATCC 22019, C. tropicalis (Castellani) Berkhout ATCC 750, C. tropicalis IBA 171, C. guilliermondii IBA 155, and Saccharomyces cerevisiae ATCC 9763. Moreover, 5 clinical strains of methicillin-resistant S. aureus were also included: NMI 664 K, NMI 1576 K, NMI 1712 K, NMI 1991 K, and NMI 2541 K. All strains were stored at −80 °C. Prior to testing, each bacterial strain was subcultured twice on tryptic soy agar TSA (bioMerieux) medium and yeast strains on Sabouraud dextrose agar (bioMerieux) for 24–48 h at 30 °C to ensure viability. The antimicrobial activity was evaluated as previously described[26] by the disc-diffusion method and the MIC determination assays according to the EUCAST (ref. [71] and [72]) and CLSI (ref. [53] and [73]) recommendations. Assessment of bactericidal (MBC) and fungicidal (MFC) activities was performed according to the CLSI recommendations.[54,74] The following reference agents were used: fluconazole (in the case of fungi), linezolid (for Gram-positive bacteria), and nitrofurantoin (for Gram-negative rods). The new benzosiloxaboroles were dissolved in DMSO (Sigma).

C. krusei ATCC 6258 = assay: Antifungal activity: MIC/MFC, disc-diffusion; type: cell-based
Description: as §1, with “The following reference agents were used: fluconazole (in the case of fungi), linezolid (for Gram-positive bacteria), and nitrofurantoin (for Gram-negative rods).” left out

[2] = tested on: C. guilliermondii IBA 155; assay: Antifungal activity: MIC/MFC, disc-diffusion; type: cell-based
Description: as §1

[3] = tested on: C. parapsilosis ATCC 22019; assay: Antifungal activity: MIC/MFC, disc-diffusion; type: cell-based
Description: as §1

C. tropicalis ATCC 750 = assay: Antifungal activity: MIC/MFC, disc-diffusion; type: cell-based
Description: as §1

C. tropicalis IBA 171 = assay: Antifungal activity: MIC/MFC, disc-diffusion; type: cell-based
Description: as §1

S. cerevisiae ATCC 9763 = assay: Antifungal activity: MIC/MFC, disc-diffusion; type: cell-based, Saccharomyces cerevisiae
Description: as §1

E. coli ATCC 25922 = assay: Antibacterial activity: MIC/MBC, MIC with PAβN, disc-diffusion; type: cell-based, Escherichia coli; conditions: E. coli ATCC 25922
Description: as §1, with “The following reference agents were used: fluconazole (in the case of fungi), linezolid (for Gram-positive bacteria), and nitrofurantoin (for Gram-negative rods).” left out
(§2) Considering that the MDR efflux pumps often contribute to Gram-negative rod resistance, the MIC values of studied agents, with or without the pump inhibitor, PAβN (20 μg mL^−1) (Sigma), were determined.[75] The MIC was determined using Mueller–Hinton II broth medium (MHB) (Becton Dickinson) by the broth microdilution method, according to the CLSI guideliness.[53] To minimize the influence of PAβN on the destabilization of bacterial cell covers, the tests were conducted in the presence of 1 mM MgSO4 (Sigma).[76] At least a 4-fold reduction in the MIC value after the addition of PAβN was considered significant.[56,77]

K. pneumoniae ATCC 13883 = assay: as above; type: cell-based, Klebsiella pneumoniae; conditions: K. pneumoniae ATCC 13883
Description: as §1, with “The following reference agents were used: fluconazole (in the case of fungi), linezolid (for Gram-positive bacteria), and nitrofurantoin (for Gram-negative rods).” left out
as §2

P. mirabilis ATCC 12453 = assay: as above; type: cell-based, Proteus mirabilis; conditions: P. mirabilis ATCC 12453
Description: as §1, with “The following reference agents were used: fluconazole (in the case of fungi), linezolid (for Gram-positive bacteria), and nitrofurantoin (for Gram-negative rods).” left out
as §2

E. cloacae DSM 6234 = assay: as above; type: cell-based, Enterobacter cloacae; conditions: E. cloacae DSM 6234
Description: as §1, with “The following reference agents were used: fluconazole (in the case of fungi), linezolid (for Gram-positive bacteria), and nitrofurantoin (for Gram-negative rods).” left out
as §2

S. marcescens ATCC 13880 = assay: as above; type: cell-based, Serratia marcescens; conditions: S. marcescens ATCC 13880
Description: as §1, with “The following reference agents were used: fluconazole (in the case of fungi), linezolid (for Gram-positive bacteria), and nitrofurantoin (for Gram-negative rods).” left out
as §2

A. baumannii ATCC 19606 = assay: as above; type: cell-based, Acinetobacter baumannii; conditions: A. baumannii ATCC 19606
Description: as §1, with “The following reference agents were used: fluconazole (in the case of fungi), linezolid (for Gram-positive bacteria), and nitrofurantoin (for Gram-negative rods).” left out
as §2

P. aeruginosa ATCC 27853 = assay: as above; type: cell-based; conditions: Pseudomonas aeruginosa, ATCC27853, P. aeruginosa ATCC 27853
Description: as §1, with “The following reference agents were used: fluconazole (in the case of fungi), linezolid (for Gram-positive bacteria), and nitrofurantoin (for Gram-negative rods).” left out
as §2

[4] = tested on: S. maltophilia ATCC 12714; assay: as above; type: cell-based, Stenotrophomonas maltophilia; conditions: Stenotrophomonas maltophilia, ATCC12714, S. maltophilia ATCC 12714
Description: as §1, with “The following reference agents were used: fluconazole (in the case of fungi), linezolid (for Gram-positive bacteria), and nitrofurantoin (for Gram-negative rods).” left out
as §2

[5] = tested on: S. maltophilia ATCC 13637; assay: as above; type: cell-based, Stenotrophomonas maltophilia; conditions: Stenotrophomonas maltophilia, ATCC13637, S. maltophilia ATCC 13637
Description: as §1, with “The following reference agents were used: fluconazole (in the case of fungi), linezolid (for Gram-positive bacteria), and nitrofurantoin (for Gram-negative rods).” left out
as §2

B. cepacia ATCC 25416 = assay: Antibacterial activity: MIC/MBC, disc-diffusion; type: cell-based, Burkholderia cepacia; conditions: B. cepacia ATCC 25416
Description: as §1, with “The following reference agents were used: fluconazole (in the case of fungi), linezolid (for Gram-positive bacteria), and nitrofurantoin (for Gram-negative rods).” left out
as §2

[6] = tested on: B. bronchiseptica ATCC 4617; assay: Antibacterial activity: MIC/MBC, disc-diffusion; type: cell-based, Bordetella bronchiseptica; conditions: Bordetella bronchiseptica, ATCC4617, B. bronchiseptica ATCC 4617
Description: as §1, with “The following reference agents were used: fluconazole (in the case of fungi), linezolid (for Gram-positive bacteria), and nitrofurantoin (for Gram-negative rods).” left out
as §2

[7] = (-) = zone not observed, paper discs 9 mm

N.N.[Cl][Pt][Cl] [Cisplatin, reference compound] showed an IC50 [1] of 1.9 µg/mL.
In the case of OC(Cn1cncn1)(Cn1cncn1)c1ccc(F)cc1F [FL, fluconazole, reference compound], the “diameter of inhibition zone” value (C. albicans ATCC 90028; C. albicans ATCC 90028, (-) = zone not observed, paper discs 9 mm) is reported as 43 mm, the MIC (C. albicans ATCC 90028; Candida albicans, ATCC90028, read-out: MIC) is reported as 1 µg/mL (≈ 3.27 µM) and the “diameter of inhibition zone” value (C. krusei ATCC 6258; C. krusei ATCC 6258, (-) = zone not observed, paper discs 9 mm) is reported as 16 mm. For the same molecule, the MIC (C. krusei ATCC 6258; Pichia kudriavzevii, ATCC6258, read-out: MIC) was 64 µg/mL (≈ 209 µM), the “diameter of inhibition zone” value ([2]; C. guilliermondii IBA 155, (-) = zone not observed, paper discs 9 mm) was 40 mm and the MIC ([2]; Meyerozyma guilliermondii, IBA155, read-out: MIC) was 0.75 µg/mL (≈ 2.45 µM). For the same molecule, the “diameter of inhibition zone” value ([3]; C. parapsilosis ATCC 22019, (-) = zone not observed, paper discs 9 mm) was 32 mm, the MIC ([3]; Lodderomyces parapsilosis, ATCC22019, read-out: MIC) was 2 µg/mL (≈ 6.53 µM) and the “diameter of inhibition zone” value (C. tropicalis ATCC 750; C. tropicalis ATCC 750, (-) = zone not observed, paper discs 9 mm) was 40 mm. For the same molecule, the MIC (C. tropicalis ATCC 750; Candida tropicalis, ATCC750, read-out: MIC) was 0.38 µg/mL (≈ 1.24 µM), the “diameter of inhibition zone” value (C. tropicalis IBA 171; C. tropicalis IBA 171, (-) = zone not observed, paper discs 9 mm) was 39 mm and the MIC (C. tropicalis IBA 171; Candida tropicalis, IBA171, read-out: MIC) was 0.38 µg/mL (≈ 1.24 µM). The “diameter of inhibition zone” value (S. cerevisiae ATCC 9763; S. cerevisiae ATCC 9763, (-) = zone not observed, paper discs 9 mm) was 12 mm and the MIC (S. cerevisiae ATCC 9763; Saccharomyces cerevisiae, ATCC9763, read-out: MIC) was 16 µg/mL (≈ 52.2 µM).
With O=C1CN(/N=C/c2ccc([N+](=O)[O-])o2)C(=O)N1 [NF, nitrofurantoin, reference compound] the “diameter of inhibition zone” value (E. coli ATCC 25922; [7]) was 24 mm, the MBC (E. coli ATCC 25922; Escherichia coli, ATCC25922) was 8 µg/mL (≈ 33.6 µM) and the MIC (E. coli ATCC 25922; Escherichia coli, ATCC25922, read-out: MIC) was 8 µg/mL (≈ 33.6 µM). For the same molecule, the “diameter of inhibition zone” value (K. pneumoniae ATCC 13883; [7]) was 23 mm, the MBC (K. pneumoniae ATCC 13883; Klebsiella pneumoniae, ATCC13883) was 32 µg/mL (≈ 134 µM) and the MIC (K. pneumoniae ATCC 13883; Klebsiella pneumoniae, ATCC13883, read-out: MIC) was 32 µg/mL (≈ 134 µM). For the same molecule, the “diameter of inhibition zone” value (P. mirabilis ATCC 12453; [7]) was 9 mm, the MBC (P. mirabilis ATCC 12453; Proteus mirabilis, ATCC12453) was > 128 µg/mL and the MIC (P. mirabilis ATCC 12453; Proteus mirabilis, ATCC12453, read-out: MIC) was 128 µg/mL (≈ 537 µM). For the same molecule, the “diameter of inhibition zone” value (E. cloacae DSM 6234; [7]) was 17 mm, the MBC (E. cloacae DSM 6234; Enterobacter cloacae, DSM6234) was 32 µg/mL (≈ 134 µM) and the MIC (E. cloacae DSM 6234; Enterobacter cloacae, DSM6234, read-out: MIC) was 32 µg/mL (≈ 134 µM). For the same molecule, the “diameter of inhibition zone” value (S. marcescens ATCC 13880; [7]) was 12 mm, the MBC (S. marcescens ATCC 13880; Serratia marcescens, ATCC13880) was > 128 µg/mL and the MIC (S. marcescens ATCC 13880; Serratia marcescens, ATCC13880, read-out: MIC) was 128 µg/mL (≈ 537 µM). The “diameter of inhibition zone” value (A. baumannii ATCC 19606; [7]) was 9 mm, the MBC (A. baumannii ATCC 19606; Acinetobacter baumannii, ATCC19606) was 128 µg/mL (≈ 537 µM) and the MIC (A. baumannii ATCC 19606; Acinetobacter baumannii, ATCC19606, read-out: MIC) was 64 µg/mL (≈ 269 µM). For the same molecule, the MBC (P. aeruginosa ATCC 27853) was > 128 µg/mL, the MIC (P. aeruginosa ATCC 27853; read-out: MIC) was > 128 µg/mL and the MBC [4] was > 128 µg/mL. For the same molecule, the MIC ([4]; read-out: MIC) was 128 µg/mL (≈ 537 µM), the MBC [5] was > 128 µg/mL and the MIC ([5]; read-out: MIC) was 128 µg/mL (≈ 537 µM). For the same molecule, the “diameter of inhibition zone” value (B. cepacia ATCC 25416; [7]) was 12 mm, the MBC (B. cepacia ATCC 25416; Burkholderia cepacia, ATCC25416) was 32 µg/mL (≈ 134 µM) and the MIC (B. cepacia ATCC 25416; Burkholderia cepacia, ATCC25416, read-out: MIC) was 32 µg/mL (≈ 134 µM). It also gave an MBC [6] of 128 µg/mL (≈ 537 µM) and an MIC ([6]; read-out: MIC) of 64 µg/mL (≈ 269 µM).

— publication PMC11110727, “Exploiting thiol-functionalized benzosiloxaboroles for achieving diverse substitution patterns – synthesis, characterization and biological evaluation of promising antibacterial agents” (RSC Medicinal Chemistry, 2024)
